In experiment [1] the test system is gene expression in MDA-MB468 cells. Put plainly: Gene expression profiling via RNA-seq (DESeq2, linear model), MDA-MB468. It counts as cell-based. Conditions: four hours, JQ1 125 nM, Compound 1 25 nM. How it is done:
(§1) In addition, we compared the ability of JQ1 alone, Compound 1 alone, and a combination of JQ1 and Compound 1 to modify expression of various genes in two breast cancer cell lines. Two triple-negative breast cancer cell lines (HCC70 and MDA-MB468) were tested. The cell lines were treated with JQ1, Compound 1, the JQ1/Compound 1 combination, or DMSO for four hours, after which gene expression profiling via RNA-seq was performed. JQ1 was administered to the cells at a 125 nM final concentration in both single agent and combination experiments. Compound 1 was administered to the cells at a 25 nM final concentration in both single agent and combination experiments. Each experiment was performed in triplicate. One replicate of MDA-MB-468 treated with single-agent JQ1 was excluded from further analysis due to quality.
(§2) We employed DESeq2 (Love et al., Genome Biology, 15(12):550, 2014) to identify changes in gene expression due to the JQ1, Compound 1, and JQ1-Compound 1 combination treatment compared to the control DMSO condition based on the RNA-seq data. Genes resulting in a p-value below 0.01 and an absolute logFoldChange above 0.5 were considered to be differentially expressed. […] The same is true for 1459 of 2414 genes in MDA-MB468.
(§3) To identify the genes whose expression is impacted synergistically by the drug combination, we modeled the effect of each drug treatment on expression using a linear model. The expression of each gene after the combination treatment can be thought of as the combined impact of Compound 1, JQ1, and any synergistic interaction between the drug treatments on baseline gene expression. A linear model used to describe this relationship could therefore be represented as:
(§4) Gene Expression after combination treatment=Baseline Expression+Compound 1 effect+JQ1 effect+Combination effect (Synergistic Impact)
(§5) By fitting the expression data for each gene using this model, we were able to evaluate the effect of each treatment, and identify cases where a synergistic interaction between Compound 1 and JQ1 impacts final gene expression. After fitting the linear model to each gene, the weight and p-value of each term can be evaluated. The combination term's weight signifies the mean change resulting from a synergetic impact on expression, with a negative weight indicating synergistic downregulation. Its associated p-value represents the probability that the combination term is not relevant to final gene expression. Using this approach, we identified 1806 genes in HCC70 and 2205 genes in MDA-MB468 whose expression change in the combination treatment was synergistic and whose associated p-value was less than a threshold cutoff of 0.01. The expression of these synergistic genes could not be explained by an additive effect of Compound 1 and JQ1 alone.

For experiment [2], the system named is gene expression in HCC70 cells. Put plainly: Gene expression profiling via RNA-seq (DESeq2, linear model), HCC70. It counts as cell-based. The following applies: four hours, JQ1 125 nM, Compound 1 25 nM. The protocol:
as §1, §2, §3, §4, §5

The test system of experiment [3] is HR^+ breast cancer cell lines. The following applies: several HR^+ breast cancer cell lines; cited from earlier work.

Take `Cc1sc2c(c1C)C(c1ccc(Cl)cc1)=N[C@@H](CC(=O)OC(C)(C)C)c1nnc(C)n1-2` [JQ1, reference compound]: the results for the “Average Expression (TPM) FOXC1” value in experiment [1] (DMSO 33.731) and in experiment [2] (DMSO 40.481) were 37.112 TPM and 40.529 TPM, respectively. Moreover, the “Average Expression (TPM) GATA3” value is 32.491 TPM in experiment [1] (DMSO 34.244) and 29.574 TPM in experiment [2] (DMSO 32.685). Moreover, the “Average Expression (TPM) TGIF1” value in experiment [1] (DMSO 145.88) is on record as 151.60 TPM; in experiment [2] (DMSO 62.523), 52.509 TPM.

For `CN(C)C/C=C/C(=O)Nc1ccc(C(=O)Nc2cccc(Nc3ncc(Cl)c(-c4c[nH]c5ccccc45)n3)c2)cc1` [THZ-1], the “In vitro synergy with fulvestrant” value in experiment [3] is “synergy”.

The record behind these values is patent publication US20200113902A1, “COMPOSITIONS AND METHODS FOR TREATING CANCERS WITH COVALENT INHIBITORS OF CYCLIN-DEPENDENT KINASE 7 (CDK7)” (Syros Pharmaceuticals, Inc., priority 2017, published 2020).
